Experimental data from patent US8404729B2, “Heterocyclic tetracyclic tetrahydrofuran derivatives” (Janssen Pharmaceutica, NV, priority 2005, dated 2013).

Legend:
[1] = target: T1, 5-HT2C receptors (Sus scrofa, UniProt K7GSR7); assay: In vitro binding affinity for 5-HT2C receptor (3H-mesulergine radioligand binding); details: choroid plexus of the pig, read-out: 5-HT2C (pIC50) (converted)
T1 construct: the tissue used is the choroid plexus of the pig; from tissue; host or cells: pig choroid plexus
T1 sequence (K7GSR7 1-457): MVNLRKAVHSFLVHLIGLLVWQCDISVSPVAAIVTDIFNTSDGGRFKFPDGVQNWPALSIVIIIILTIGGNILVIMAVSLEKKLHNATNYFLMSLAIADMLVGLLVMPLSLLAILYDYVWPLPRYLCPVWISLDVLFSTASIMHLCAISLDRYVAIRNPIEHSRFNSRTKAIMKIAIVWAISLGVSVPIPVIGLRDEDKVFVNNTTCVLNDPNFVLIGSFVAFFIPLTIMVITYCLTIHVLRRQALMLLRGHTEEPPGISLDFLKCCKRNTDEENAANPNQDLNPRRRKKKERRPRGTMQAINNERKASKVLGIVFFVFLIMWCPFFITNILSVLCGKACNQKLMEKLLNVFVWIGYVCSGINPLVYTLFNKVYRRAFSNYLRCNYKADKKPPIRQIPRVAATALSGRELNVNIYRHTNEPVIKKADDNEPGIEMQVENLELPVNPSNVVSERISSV
Experimental: (§1) The interaction of the compounds of Formula (I) with 5-HT2A and 5-HT2C receptors was assessed in in vitro radioligand binding experiments. In general, a low concentration of a radioligand with a high binding affinity for the receptor is incubated with a sample of a tissue preparation enriched in a particular receptor (1 to 5 mg tissue) in a buffered medium (0.2 to 5 ml). During the incubation, the radioligands bind to the receptor. When equilibrium of binding is reached, the receptor bound radioactivity is separated from the non-bound radioactivity, and the receptor bound activity is counted. The interaction of the test compounds with the receptors is assessed in competition binding experiments. Various concentrations of the test compound are added to the incubation mixture containing the tissue preparation and the radioligand. Binding of the radioligand will be inhibited by the test compound in proportion to its binding affinity and its concentration. The radioligand used for 5-HT2A binding affinity is ^3H-ketanserin and the tissue used is the frontal cortex of the rat. The radioligand used for 5-HT2c binding affinity is ^3H-mesulergine and the tissue used is the choroid plexus of the pig.

[2] = target: T2, human Dopamine D2L receptor (Homo sapiens, UniProt P14416); assay: In vitro binding affinity for human D2L receptor ([3H]Spiperone); details: membranes of human D2L receptor-transfected CHO cells, read-out: D2 (pIC50) (converted)
T2 construct: expressed in transfected cells; host or cells: CHO cells
Experimental: Frozen membranes of human Dopamine D2L receptor-transfected CHO cells were thawed, briefly homogenised using an Ultra-Turrax T25 homogeniser and diluted in Tris-HCl assay buffer containing NaCl, CaCl2, MgCl2, KCl (50, 120, 2, 1, and 5 mM respectively, adjusted to pH 7.7 with HCl) to an appropriate protein concentration optimised for specific and non-specific binding. Radioligand [^3H]Spiperone (NEN, specific activity ˜70 Ci/mmol) was diluted in assay buffer at a concentration of 2 nmol/L. Prepared radioligand (50 μl), along with 50 μl of either the 10% DMSO control, Butaclamol (10^−6 mol/l final concentration), or compound of interest, was then incubated (30 min, 37° C.) with 400 μl of the prepared membrane solution. Membrane-bound activity was filtered through a Packard Filtermate harvester onto GF/B Unifilterplates and washed with ice-cold Tris-HCl buffer (50 mM; pH 7.7; 6×0.5 ml). Filters were allowed to dry before adding scintillation fluid and counting in a Topcount scintillation counter. Percentage specific bound and competition binding curves were calculated using S-Plus software (Insightful).

[3] = target: T3, NET (Rattus norvegicus, UniProt Q63380); assay: In vitro determination of NET reuptake inhibition ([3H]Nixosetine binding); details: rat brain cortex membranes, read-out: NET-inhibition (pIC50) (converted)
T3 construct: Cortex from rat brain was collected and homogenised; from tissue; host or cells: rat brain cortex
Experimental: Cortex from rat brain was collected and homogenised using an Ultra-Turrax T25 and a Dual homogeniser in ice-cold homogenising buffer containing Tris, NaCl and KCl (50 mM, 120 mM and 5 mM, respectively, pH 7.4) prior to dilution to an appropriate protein concentration optimised for specific and non-specific binding. […] Membrane-bound activity was detected by filtration through a Packard Filtermate harvester onto GF/B Unifilterplates, washed with ice-cold Tris-HCl buffer, containing NaCl and KCl (50 mM, 120 mM and 4 mM; pH 7.4; 6×0.5 ml). Filters were allowed to dry for 24 h before adding scintillation fluid. Scintillation fluid was allowed to saturate filters for 24 h before counting in a Topcount scintillation counter. Percentage specific bound and competition binding curves were calculated using S-Plus software (Insightful).

[4] = target: T4, 5-HT2A receptors (Rattus norvegicus, UniProt P14842); assay: In vitro binding affinity for 5-HT2A receptor (3H-ketanserin radioligand binding); details: frontal cortex of the rat, read-out: 5-HT2A (pIC50) (converted)
T4 construct: the tissue used is the frontal cortex of the rat; from tissue; host or cells: rat frontal cortex
Experimental: as §1, with “In general, a low concentration of a radioligand with a high binding affinity for the receptor is incubated with a sample of a tissue preparation enriched in a particular receptor (1 to 5 mg tissue) in a buffered medium (0.2 to 5 ml).” left out

T4 sequence (P14842 whole entry): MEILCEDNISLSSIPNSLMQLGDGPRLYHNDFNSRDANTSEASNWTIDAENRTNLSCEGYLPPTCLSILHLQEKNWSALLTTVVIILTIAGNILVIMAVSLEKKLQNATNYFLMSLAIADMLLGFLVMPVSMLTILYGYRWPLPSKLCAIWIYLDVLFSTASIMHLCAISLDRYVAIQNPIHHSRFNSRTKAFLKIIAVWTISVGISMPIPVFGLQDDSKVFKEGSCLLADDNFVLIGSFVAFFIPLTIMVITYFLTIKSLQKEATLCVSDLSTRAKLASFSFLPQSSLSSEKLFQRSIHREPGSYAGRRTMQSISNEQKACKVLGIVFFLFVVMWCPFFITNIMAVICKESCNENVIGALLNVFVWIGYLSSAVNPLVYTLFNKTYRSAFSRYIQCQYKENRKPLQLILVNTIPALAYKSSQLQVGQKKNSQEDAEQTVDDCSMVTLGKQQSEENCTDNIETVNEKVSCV
T2 sequence (P14416 whole entry): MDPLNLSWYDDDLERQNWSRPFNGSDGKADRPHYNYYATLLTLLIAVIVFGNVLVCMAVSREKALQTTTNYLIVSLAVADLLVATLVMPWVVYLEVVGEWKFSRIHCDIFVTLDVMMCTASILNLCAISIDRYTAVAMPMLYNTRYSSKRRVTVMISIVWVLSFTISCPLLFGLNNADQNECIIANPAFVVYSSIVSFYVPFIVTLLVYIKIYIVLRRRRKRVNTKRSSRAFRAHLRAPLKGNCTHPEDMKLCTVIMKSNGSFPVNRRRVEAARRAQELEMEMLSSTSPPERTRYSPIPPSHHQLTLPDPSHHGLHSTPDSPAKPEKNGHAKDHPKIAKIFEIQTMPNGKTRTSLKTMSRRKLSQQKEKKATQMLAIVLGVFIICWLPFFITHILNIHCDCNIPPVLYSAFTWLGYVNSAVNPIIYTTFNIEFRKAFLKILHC
T3 sequence (Q63380 1-617): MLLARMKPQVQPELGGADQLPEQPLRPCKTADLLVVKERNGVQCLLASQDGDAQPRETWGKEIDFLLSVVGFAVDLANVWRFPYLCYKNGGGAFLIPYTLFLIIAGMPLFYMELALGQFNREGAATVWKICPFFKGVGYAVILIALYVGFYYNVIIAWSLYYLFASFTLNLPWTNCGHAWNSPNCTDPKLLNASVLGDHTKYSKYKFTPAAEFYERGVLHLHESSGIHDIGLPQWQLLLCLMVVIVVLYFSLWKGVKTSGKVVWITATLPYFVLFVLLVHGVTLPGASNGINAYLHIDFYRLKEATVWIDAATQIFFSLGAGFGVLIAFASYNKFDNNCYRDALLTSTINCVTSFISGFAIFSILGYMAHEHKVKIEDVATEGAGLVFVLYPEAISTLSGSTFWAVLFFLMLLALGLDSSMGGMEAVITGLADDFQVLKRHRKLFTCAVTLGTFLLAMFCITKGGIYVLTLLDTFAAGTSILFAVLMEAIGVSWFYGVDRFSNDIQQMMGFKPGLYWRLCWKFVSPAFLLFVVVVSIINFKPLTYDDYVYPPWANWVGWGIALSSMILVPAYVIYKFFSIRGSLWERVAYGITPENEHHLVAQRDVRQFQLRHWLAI

Structure (SMILES): CNCC1CC2c3ccccc3N(Cc3ccccc3)c3ncccc3C2O1 (mixture of isomers) [Compound 37]
- IC50 [1]: 100 nM
- IC50 [2]: 1580 nM
- IC50 [3]: 1260 nM

Structure (SMILES): CN(C)C[C@H]1C[C@@H]2c3ccccc3Sc3sc(CO)cc3[C@H]2O1 (racemic) [Compound 5]
- IC50 [1]: 20 nM
- IC50 [2]: 200 nM
- IC50 [3]: 398 nM

Structure (SMILES): CNC[C@H]1C[C@@H]2c3ccccc3Sc3sccc3[C@H]2O1 (racemic) [Compound 20]
- IC50 [4]: 79.4 nM
- IC50 [1]: 50.1 nM
- IC50 [2]: 1260 nM
- IC50 [3]: 63.1 nM

Structure (SMILES): CN(CCO)CC1CC2c3ccccc3Sc3sccc3C2O1 (racemic) [Compound 25]
- IC50 [4]: 10 nM
- IC50 [1]: 10 nM
- IC50 [2]: 200 nM
- IC50 [3]: 126 nM

Structure (SMILES): CNC[C@H]1C[C@@H]2c3ccccc3Sc3sccc3[C@H]2O1 (racemic) [Compound 32]
- IC50 [2]: 2000 nM
- IC50 [3]: 39.8 nM

Structure (SMILES): CN(CCO)C[C@H]1C[C@H]2c3ccccc3Sc3sccc3[C@@H]2O1 (relative stereo) [Compound 10]
- IC50 [4]: 12.6 nM
- IC50 [1]: 20 nM
- IC50 [2]: 200 nM
- IC50 [3]: 200 nM

Structure (SMILES): OCCN1CCN(C[C@H]2C[C@H]3c4ccccc4Sc4sccc4[C@@H]3O2)CC1 (relative stereo) [Compound 12]
- IC50 [4]: 12.6 nM
- IC50 [1]: 251 nM
- IC50 [2]: 31.6 nM
- IC50 [3]: > 10000 nM

Structure (SMILES): c1ccc2c(c1)Sc1sccc1[C@@H]1O[C@@H](CN3CCC4(CC3)OCCO4)C[C@@H]21 (relative stereo) [Compound 13]
- IC50 [4]: 5.01 nM
- IC50 [1]: 100 nM
- IC50 [2]: 20 nM
- IC50 [3]: > 10000 nM

Structure (SMILES): OCCN1CCN(C[C@H]2C[C@@H]3c4ccccc4Sc4sccc4[C@H]3O2)CC1 (relative stereo) [Compound 15]
- IC50 [4]: 200 nM
- IC50 [1]: 251 nM
- IC50 [2]: 251 nM
- IC50 [3]: 2510 nM

Structure (SMILES): OC1CCN(C[C@H]2C[C@@H]3c4ccccc4Sc4sccc4[C@H]3O2)C1 (relative stereo) [Compound 16]
- IC50 [4]: 20 nM
- IC50 [1]: 15.8 nM
- IC50 [2]: 158 nM
- IC50 [3]: 3160 nM

Structure (SMILES): c1ccc2c(c1)Sc1sccc1[C@H]1O[C@@H](CN3CCC4(CC3)OCCO4)C[C@H]21 (relative stereo) [Compound 17]
- IC50 [4]: 39.8 nM
- IC50 [1]: 100 nM
- IC50 [2]: 158 nM
- IC50 [3]: > 10000 nM

Structure (SMILES): CN(CCO)C[C@H]1C[C@@H]2c3ccccc3Sc3sccc3[C@H]2O1 (relative stereo) [Compound 18]
- IC50 [4]: 39.8 nM
- IC50 [1]: 39.8 nM
- IC50 [3]: 31.6 nM

Structure (SMILES): CNC[C@H]1C[C@H]2c3ccccc3Sc3sccc3[C@@H]2O1 (relative stereo) [Compound 21]
- IC50 [4]: < 10 nM
- IC50 [1]: 3.98 nM
- IC50 [2]: 501 nM
- IC50 [3]: 126 nM

Structure (SMILES): OC1CCN(C[C@H]2C[C@H]3c4ccccc4Sc4sccc4[C@@H]3O2)C1 (relative stereo) [Compound 23]
- IC50 [4]: < 10 nM
- IC50 [1]: 3.98 nM
- IC50 [2]: 251 nM
- IC50 [3]: 3160 nM

Structure (SMILES): CN(C)C1CCN(C[C@H]2C[C@@H]3c4ccccc4Sc4sccc4C3O2)C1 (relative stereo) [Compound 27]
- IC50 [1]: 50.1 nM
- IC50 [2]: 398 nM
- IC50 [3]: > 10000 nM

Structure (SMILES): CN(C)C1CCN(C[C@H]2C[C@H]3c4ccccc4Sc4sccc4[C@@H]3O2)C1 (relative stereo) [Compound 29]
- IC50 [1]: 251 nM
- IC50 [2]: 794 nM
- IC50 [3]: > 10000 nM

Structure (SMILES): CNCC1CC2c3ccccc3Sc3sccc3C2O1 (single isomer, unassigned) [Compound 31]
- IC50 [1]: 27.5 nM
- IC50 [2]: 1260 nM
- IC50 [3]: 1000 nM

Structure (SMILES): CN(C)C[C@@H]1C[C@@H]2c3ccccc3Sc3sccc3[C@H]2O1 [Compound 2]
- IC50 [4]: < 10 nM
- IC50 [1]: 7.94 nM
- IC50 [2]: 200 nM
- IC50 [3]: 63.1 nM

Structure (SMILES): COC(=O)c1cc2c(s1)Sc1ccccc1[C@H]1C[C@H](CN(C)C)O[C@H]21 [Compound 4]
- IC50 [1]: 158 nM
- IC50 [2]: 3980 nM
- IC50 [3]: 631 nM

Structure (SMILES): CNCC1CC2c3ccccc3Cc3sccc3C2O1 (stereo not drawn) [Compound 6]
- IC50 [4]: 39.8 nM
- IC50 [1]: 39.8 nM
- IC50 [2]: 2510 nM
- IC50 [3]: 2000 nM

Structure (SMILES): CNCC1CC2c3ccccc3Cc3sccc3C2O1 (stereo not drawn) [Compound 7]
- IC50 [4]: 251 nM
- IC50 [1]: 20 nM
- IC50 [2]: 3160 nM
- IC50 [3]: 2510 nM

Structure (SMILES): CNCC1CC2c3ccccc3Cc3sccc3C2O1 (stereo not drawn) [Compound 8]
- IC50 [4]: > 10000 nM
- IC50 [1]: 63.1 nM
- IC50 [2]: 3160 nM
- IC50 [3]: 1000 nM

Structure (SMILES): CN(C)CC1CC2c3ccccc3Sc3sccc3C2O1 (stereo not drawn) [Compound 9]
- IC50 [4]: 15.8 nM
- IC50 [1]: 25.1 nM
- IC50 [2]: 398 nM
- IC50 [3]: 316 nM

Structure (SMILES): OCCC1CCN(CC2CC3c4ccccc4Sc4sccc4C3O2)CC1 (stereo not drawn) [Compound 11]
- IC50 [4]: 3.16 nM
- IC50 [1]: 39.8 nM
- IC50 [2]: 6.31 nM
- IC50 [3]: 7940 nM

Structure (SMILES): CN(C)CC1CC2c3ccccc3Cc3sccc3C2O1 (stereo not drawn) [Compound 33]
- IC50 [4]: 100 nM
- IC50 [1]: 50.1 nM
- IC50 [2]: 794 nM
- IC50 [3]: 1000 nM

Structure (SMILES): CCOC(=O)c1cc2c(s1)Sc1ccccc1C1CC(CN(C)C)OC21 (stereo not drawn) [Compound 34]
- IC50 [4]: 158 nM
- IC50 [1]: 316 nM
- IC50 [2]: 3980 nM
- IC50 [3]: 2510 nM

Structure (SMILES): CN(C)CC1CC2c3ccccc3Cc3ccsc3C2O1 (stereo not drawn) [Compound 35]
- IC50 [4]: 6.31 nM
- IC50 [1]: 15.8 nM
- IC50 [2]: 794 nM
- IC50 [3]: 501 nM

Structure (SMILES): CNCC1CC2c3ccccc3N(Cc3ccccc3)c3ncccc3C2O1 (stereo not drawn) [Compound 36]
- IC50 [1]: 631 nM
- IC50 [2]: 6310 nM
- IC50 [3]: 5010 nM
